Publication PMC12298827, “Subchronic Toxicities of Four Per- and Polyfluoroalkyl Substances (PFASs) by Oral Exposure in Sprague–Dawley Rats” (Toxics, 2025)

System: male and female Sprague–Dawley rats
Assay: 90-day subchronic oral gavage toxicity study
Type: in vivo, rat
Set-up: key to NOEL, absolute liver weight increase / LOEL, absolute liver weight increase / NOEL, relative kidney weight increase / LOEL, relative kidney weight increase / NOEL, absolute kidney weight increase / LOEL, absolute kidney weight increase / NOEL, relative liver weight increase / LOEL, relative liver weight increase: NR: no response, no statistically significant dose-dependent changes
Procedure, shortened: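 Ten rats per sex per group got corn-oil gavage (3 mL/kg) at five doses or vehicle for 90 days, necropsy on SD 91. Assessed weekly weights and food intake, neurobehavior (FOB, locomotor), eyes, terminal blood panels with plasma PFAS, organ weights and H&E histology; Dunnett's test against control, two-sided 0.05.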

## CC(=O)C(F)(F)C(F)(F)C(F)(F)F [MHFPK, Methyl heptafluoropropyl ketone]
female, 300 mg/kg-day
  MPV: 9.01 ± 0.50 fL
  PT: 15.33 s
  RBC: 8.159±0.351 M/µL
  Total BW change: 95.70 g
  Total Food Consumed: 1575 g
male
  LOEL, absolute kidney weight increase: NR
  LOEL, absolute liver weight increase: NR
  LOEL, relative kidney weight increase: NR
  LOEL, relative liver weight increase: NR
  NOEL, absolute kidney weight increase: NR
  NOEL, absolute liver weight increase: NR
  NOEL, relative kidney weight increase: NR
  NOEL, relative liver weight increase: NR
male, 18.8 mg/kg-day
  % BW Gain: 103.77%
  % Diff, % BW Gain: 6.06%
  % Diff, Total BW change: 2.29%
  % Diff, Total Food Consumed: -1.53%
  A/G: 0.85±0.03 ratio
  ABNEUT: 2.172±0.976 K/µL
  ABRETi: 179.08±30.61 10^9/L
  ABSEOS: 0.110±0.032 K/µL
  ALB: 3.17 ± 0.18 g/dL
  ALPi: 114.0±26.8 U/L
  APTT: 19.56 s
  BUN: 14.8 ± 1.4 mg/dL
  CHOL: 78.6 ± 12.0 mg/dL
  GLOB: 3.75 ± 0.18 g/dL
  GLUC: 187.8 ± 37.5 mg/dL
  HCT: 49.80±1.91%
  HGB: 15.51 ± 0.80 g/dL
  Kidney Weight: 3.11 g
  Kidney/Body Weight: 0.54%
  Kidney/Brain Weight: 144%
  Liver Weight: 14.06 g
  Liver/Body Weight: 2.41%
  Liver/Brain Weight: 649%
  MPV: 7.85 ± 0.72 fL
  PT: 15.63 s
  RBC: 8.891±0.355 M/µL
  Total BW change: 300.42 g
  Total Food Consumed: 2143 g
male, 37.5 mg/kg-day
  % BW Gain: 101.81%
  % Diff, % BW Gain: 4.06%
  % Diff, Total BW change: 3.12%
  % Diff, Total Food Consumed: -2.01%
  A/G: 0.86±0.07 ratio
  ABNEUT: 1.859±0.620 K/µL
  ABRETi: 192.99±15.30 10^9/L
  ABSEOS: 0.179±0.069 K/µL
  ALB: 3.17 ± 0.15 g/dL
  ALPi: 117.7±20.1 U/L
  APTT: 18.03 s
  BUN: 16.3 ± 1.2 mg/dL
  CHOL: 75.9 ± 12.3 mg/dL
  GLOB: 3.69 ± 0.27 g/dL
  GLUC: 217.1 ± 33.5 mg/dL
  HCT: 49.12±1.32%
  HGB: 15.11 ± 0.46 g/dL
  Kidney Weight: 2.95 g
  Kidney/Body Weight: 0.50%
  Kidney/Brain Weight: 134%
  Liver Weight: 13.83 g
  Liver/Body Weight: 2.34%
  Liver/Brain Weight: 627%
  MPV: 8.18 ± 0.65 fL
  PT: 16.31 s
  RBC: 8.732±0.259 M/µL
  Total BW change: 302.87 g
  Total Food Consumed: 2133 g
male, 75 mg/kg-day
  % BW Gain: 102.83%
  % Diff, % BW Gain: 5.10%
  % Diff, Total BW change: 5.10%
  % Diff, Total Food Consumed: 1.92%
  A/G: 0.86±0.06 ratio
  ABNEUT: 1.731±0.709 K/µL
  ABRETi: 194.58±21.06 10^9/L
  ABSEOS: 0.132±0.036 K/µL
  ALB: 3.18 ± 0.15 g/dL
  ALPi: 121.9±37.5 U/L
  APTT: 17.79 s
  BUN: 15.8 ± 1.8 mg/dL
  CHOL: 67.2 ± 7.1 mg/dL
  GLOB: 3.70 ± 0.19 g/dL
  GLUC: 214.9 ± 18.3 mg/dL
  HCT: 50.90±1.81%
  HGB: 15.70 ± 0.72 g/dL
  Kidney Weight: 3.25 g
  Kidney/Body Weight: 0.54%
  Kidney/Brain Weight: 146%
  Liver Weight: 15.73 g
  Liver/Body Weight: 2.62%
  Liver/Brain Weight: 706%
  MPV: 7.92 ± 0.76 fL
  PT: 16.37 s
  RBC: 9.195±0.417 M/µL
  Total BW change: 308.68 g
  Total Food Consumed: 2218 g
male, 150 mg/kg-day
  % BW Gain: 104.78%
  % Diff, % BW Gain: 7.09%
  % Diff, Total BW change: 6.62%
  % Diff, Total Food Consumed: 3.52%
  A/G: 0.85±0.05 ratio
  ABNEUT: 1.761±0.490 K/µL
  ABRETi: 181.45±26.70 10^9/L
  ABSEOS: 0.155±0.028 K/µL
  ALB: 3.16 ± 0.18 g/dL
  ALPi: 123.9±21.1 U/L
  APTT: 18.41 s
  BUN: 14.6 ± 1.7 mg/dL
  CHOL: 71.1 ± 12.3 mg/dL
  Decrease in the adrenal/BW ratio: 20%
  GLOB: 3.72 ± 0.20 g/dL
  GLUC: 206.8 ± 44.7 mg/dL
  HCT: 50.21±1.86%
  HGB: 15.30 ± 0.78 g/dL
  Kidney Weight: 3.28 g
  Kidney/Body Weight: 0.54%
  Kidney/Brain Weight: 150%
  Liver Weight: 15.50 g
  Liver/Body Weight: 2.54%
  Liver/Brain Weight: 709%
  MPV: 8.53 ± 0.84 fL
  PT: 16.77 s
  RBC: 9.254±0.319 M/µL
  Total BW change: 313.14 g
  Total Food Consumed: 2253 g
male, 300 mg/kg-day
  % BW Gain: 102.36%
  % Diff, % BW Gain: 4.62%
  % Diff, Total BW change: 2.35%
  % Diff, Total Food Consumed: 0.89%
  A/G: 0.88±0.07 ratio
  ABNEUT: 1.674±0.435 K/µL
  ABRETi: 174.98±22.88 10^9/L
  ABSEOS: 0.139±0.055 K/µL
  ALB: 3.24 ± 0.18 g/dL
  ALPi: 123.2±28.8 U/L
  APTT: 17.66 s
  Adrenal/BW ratio: no effect
  BUN: 14.8 ± 3.7 mg/dL
  CHOL: 76.0 ± 22.0 mg/dL
  GLOB: 3.70 ± 0.19 g/dL
  GLUC: 206.4 ± 24.4 mg/dL
  HCT: 49.25±1.52%
  HGB: 15.18 ± 0.47 g/dL
  Kidney Weight: 3.24 g
  Kidney/Body Weight: 0.55%
  Kidney/Brain Weight: 144%
  Liver Weight: 15.58 g
  Liver/Body Weight: 2.61%
  Liver/Brain Weight: 693%
  MPV: 8.58 ± 0.84 fL
  PT: 17.12 s
  RBC: 8.946±0.337 M/µL
  Total BW change: 300.61 g
  Total Food Consumed: 2196 g
